Publication PMC13278354, “The competitive interplay of 12‐oxophytodienoic acid (OPDA), protein thiols, and glutathione” (The Febs Journal, 2026)

Legend:
TRX-f1 [1] = target: T1, TRX-f1 (Arabidopsis thaliana, UniProt Q9XFH8); assay: intrinsic tryptophan fluorescence quenching; assay type: binding; conditions: covalent; 15 uM reduced protein, 150 uM OPDA, 3 h, RT, 50 mM KPi pH 7.2
T1 construct: gene At3g02730; recombinant His-tagged, without transit peptide, E. coli NiCo21(DE3)
T1 sequence (Q9XFH8 58-178): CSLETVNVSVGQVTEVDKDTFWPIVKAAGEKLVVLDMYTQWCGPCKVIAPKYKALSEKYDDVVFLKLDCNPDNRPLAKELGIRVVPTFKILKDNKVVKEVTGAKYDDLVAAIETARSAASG

TRX-m4 [2] = target: T2, TRX-m4 (Arabidopsis thaliana, UniProt Q9SEU6); assay: intrinsic tryptophan fluorescence quenching; assay type: binding; conditions: covalent; 15 uM reduced protein, 150 uM OPDA, 3 h, RT, 50 mM KPi pH 7.2
T2 construct: gene At3g15360; recombinant His-tagged, without transit peptide, E. coli NiCo21(DE3)
T2 sequence (Q9SEU6 83-193): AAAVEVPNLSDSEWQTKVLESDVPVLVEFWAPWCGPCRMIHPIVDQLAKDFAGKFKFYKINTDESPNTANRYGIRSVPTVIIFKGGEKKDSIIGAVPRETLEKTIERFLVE

TRX-m4 [3] = target: T2, TRX-m4; assay: insulin reduction assay (turbidity, A650); assay type: biochemical; conditions: covalent; 20 uM TRX pre-incubated with 80 uM OPDA, RT; assay pH 7.2, 1 mM DTT
TRX-h3 = target: T3, TRX-h3 (Arabidopsis thaliana, UniProt Q42403); assay: insulin reduction assay (turbidity, A650); assay type: biochemical; conditions: covalent; 20 uM TRX pre-incubated with 80 uM OPDA, RT; assay pH 7.2, 1 mM DTT
T3 construct: gene TRX3; recombinant His-tagged, E. coli NiCo21(DE3); cytosolic, no transit peptide
T3 sequence (Q42403 1-118): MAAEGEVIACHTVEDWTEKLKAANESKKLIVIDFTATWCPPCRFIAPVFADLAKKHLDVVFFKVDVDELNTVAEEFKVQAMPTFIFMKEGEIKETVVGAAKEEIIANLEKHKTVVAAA

TRX-f1 [4] = target: T1, TRX-f1; assay: insulin reduction assay (turbidity, A650); assay type: biochemical; conditions: covalent; 20 uM TRX pre-incubated with 80 uM OPDA, RT; assay pH 7.2, 1 mM DTT

Structure (SMILES): CC/C=C\C[C@@H]1C(=O)C=C[C@@H]1CCCCCCCC(=O)O [OPDA]
- change of maximal fluorescence intensity (TRX-f1 [1]): –14.5 relative units
- change of maximal fluorescence intensity (TRX-m4 [2]): –16.3 relative units
- residual activity (TRX-m4 [3]): 71%
- residual activity (TRX-h3): 47%
- residual activity (TRX-f1 [4]): 67%
